Marks after values point to notes of the source that are not given here.

The results in this text go back to patent publication US20130085283A1, “GERANYLGERANYLACETONE DERIVATIVES” (Coyote Pharmaceuticals, Inc., priority 2011, published 2013).

In assay [1] the test system is HSP70. The experiment in a line: Expression of heat shock proteins in vitro (Western blotting of Neuro2A lysates). In kind it is cell-based. To be noted: Mus musculus, N2a, retinoic acid differentiation, GGTI-298, 24 hrs; for fold induction at 0.1 µM: 100 nM, signal in the absence of the compounds normalized as 1, read-out: HSP70 Western signal, Compound Dose 100 nM; for fold induction at 1 µM: signal in the absence of the compounds normalized as 1, read-out: HSP70 Western signal, Compound Dose 1 μM; for fold induction at 10 µM: signal in the absence of the compounds normalized as 1, read-out: HSP70 Western signal, Compound Dose 10 μM. The procedure: Mouse Neuro2A neuroblastoma cells were cultured in DMEM supplemented with 10% FBS for 24 hrs. The cells were treated with various concentrations of the indicated compounds. Then differentiation was induced by retinoic acid in DMEM supplemented with 2% FBS. An inhibitor against a G-protein, GGTI-298, was incubated. After 24 hrs incubation, cells were harvested, and lysates were prepared from the harvested cells. Western blotting analysis was done for the same protein amounts of these lysates, and western signals were detected by chemiluminescence and quantified in parallel with comparisons of those detected in the absence of the compound. Western signals in the absence of the compounds were normalized as 1.

Assay [2] has as its system Sprague-Dawley rats. The experiment in a line: Neurodegeneration induced by Kainic acid in rats (hippocampus CA3 neuron damage, seizure behavior scores). Conditions: oral dosing, Kainic acid injected. The assay is classed as in vivo, rat. On the procedure:
The compounds and the compositions of this invention are tested in vivo for their ability to alleviate neurodegenerations induced by Kainic acid. See, for example, PCT Pat. App. No. PCT/US2011/050071, supra. A compound or composition of this invention is orally dosed to Sprague-Dawley rats, and Kainic acid is injected. Seizure behaviors are observed and scored (see, e.g., R. J. Racine, Modification of seizure activity by electrical stimulation: II. Motor seizure, Electroencephalogr. Clin. Neurophysiol. 32 (1972) 281-294). Brain tissues of rats are sectioned on histology slides, and neurons in hippocampus tissues are stained by Nissl.
The indicated compounds or vehicle control were orally dosed to Sprague-Dawley rats, and Kainic acid was injected. Seizure behaviors were observed and scored (Ref. R. J. Racine, Modification of seizure activity by electrical stimulation: 11. Motor seizure, Electroencephalogr. Clin. Neurophysiol. 32 (1972) 281-294. Modifications were made for the methods). Brain tissues of rats were sectioned on histology slides, and neurons in hippocampus tissues were stained by Nissl. Neurons damaged by Kainic acid (mean of hippocampus CA3 neurons damaged) and behavior scores (mean of seizure behavior scores) were quantified.

In assay [3] the test system is Neuro2A cells. The experiment in a line: In vitro neuroprotection: Neuro2A cells cultured with GGA derivative with or without GGTI-298, cells that extended neurites counted. The assay is classed as cell-based, mouse. Conditions: for Activity 1 μM: compound at 1 μM; for Activity 1 μM / Activity 1 nm: cells that extended neurites counted, normalized by the activity of CNS-102 (GGA trans-isomer); for Activity 1 nm: compound at 1 nm (so in the source). The procedure:
Neuro2A cells were cultured with a GGA derivative in the presence or absence of an inhibitor against a G-protein (GGTI-298). After differentiation was induced, cells that extended neurites were counted as an activity of the compound. The activities are shown in arbitrary units and were normalized by the activity of CNS-102 (GGA trans-isomer) in each parallel experiments.

On to `COC(=O)C(NC(=O)OC(C)CC/C=C(\C)CC/C=C(\C)CCC=C(C)C)C(C)C` (stereo not shown) [drawing 179], for which, in assay [1], the fold induction at 0.1 µM is 1.26, the fold induction at 1 µM was 1.07 and the fold induction at 10 µM came to 1.29. For the compound `CC(C)=CCC/C(C)=C/CC/C(C)=C/CC/C(C)=C/CC1CCCCC1=O` (stereo not shown) [drawing 150], the “Mean of Hippocampus CA3 neurons damaged” value in assay [2] (Vehicle 15.61 in this table) came to 2.64 Arbitrary units.

Consider `CC(=O)CC/C=C(\C)CC/C=C(\C)CC/C=C(\C)CCC=C(C)C` [drawing 151], for which the “Mean of Hippocampus CA3 neurons damaged” value in assay [2] (Vehicle 15.61 in this table) was 9.46 Arbitrary units. For `CCOC(=O)/C=C(\C)CCC=C1CCCCC1`, the “Activity 1 μM” value in assay [3] is listed as 161* arbitrary units. For the compound `CC(=O)CC/C=C(\C)CC/C=C(\C)CC/C=C(\C)CCC=C(C)C` [drawing 178], in assay [1], the fold induction at 0.1 µM is 1.38, the fold induction at 1 µM was 2.05 and the fold induction at 10 µM is 2.14. On to `CCC(=O)CC/C=C(\C)CC/C=C(\C)CC/C=C(\C)CCC=C(C)C`, for which, in assay [3], the “Activity 1 nm” value is 186 arbitrary units. In the case of `CC(C)=CCC/C(C)=C/CC/C(C)=C/CC/C(C)=C/C=O`, the “Mean of Hippocampus CA3 neurons damaged” value in assay [2] (Vehicle 1.72 in this table) was 1.58 Arbitrary units. Turning to `CC(=O)CC/C=C(\C)CC/C=C(\C)CCC=C(C)C` [drawing 175], in assay [1], the fold induction at 0.1 µM stood at 1.87, the fold induction at 1 µM is 5.86 and the fold induction at 10 µM came out at 1.79.

Regarding `CCCCCNC(=O)OC(C)CC/C=C(\C)CC/C=C(\C)CCC=C(C)C` (stereo not shown) [drawing 162], the “Mean of Hippocampus CA3 neurons damaged” value in assay [2] (Vehicle 7.09 in this table) turned out to be 14.73 Arbitrary units. In the case of `CCOC(=O)C=C1CCCCC1`, the “Activity 1 μM” value in assay [3] is 240* arbitrary units. In the case of `CCOC(=O)C(C/C=C(\C)CC/C=C(\C)CC/C=C(\C)CCC=C(C)C)C(=O)C12CC3CC(CC(C3)C1)C2` (stereo not shown), the “Activity 1 nm” value in assay [3] worked out at 145 arbitrary units.

As to `CC(C)=CCC/C(C)=C/CC/C(C)=C/CC/C(C)=C/CCC(=O)C(C)(C)C` [drawing 166], the “Mean of Seizure behaviors scores” value in assay [2] (Vehicle 19.75 in this table) worked out at 11.25 Arbitrary units.

Regarding `CC(C)=CCC/C(C)=C/CC/C(C)=C/CC/C(C)=C/CCC(=O)C(C)(C)C` [drawing 161], the “Mean of Hippocampus CA3 neurons damaged” value in assay [2] (Vehicle 12.91 in this table) is reported as 8.08 Arbitrary units. Turning to `CC(C)=CCC/C(C)=C/CC/C(C)=C/CC/C(C)=C/COC(=O)C1CCCCC1` [drawing 167], the “Mean of Seizure behaviors scores” value in assay [2] (Vehicle 26.31 in this table) came out at 18.68 Arbitrary units. Regarding `CC(C)=CCC/C(C)=C/CC/C(C)=C/CC/C(C)=C/CCC1(C)OCCO1` [drawing 172], in assay [1], the fold induction at 0.1 µM turned out to be 3.16, the fold induction at 1 µM amounted to 3.5 and the fold induction at 10 µM worked out at 3.49.

On to `CCOC(=O)C(C/C=C(\C)CC/C=C(\C)CC/C=C(\C)CCC=C(C)C)C(C)=O` (stereo not shown) [drawing 153], for which the “Mean of Hippocampus CA3 neurons damaged” value in assay [2] (Vehicle ~7.74 in this table) is ~5.57 Arbitrary units.

Take `CC(C)=CCC/C(C)=C/CC/C(C)=C/CCC(C)OC(=O)NCC1CCCCC1` (stereo not shown): in assay [1], the fold induction at 0.1 µM turned out to be 1.55, the fold induction at 1 µM worked out at 1.49 and the fold induction at 10 µM amounted to 2.53. In the case of `CC(=O)CC/C=C(\C)CC/C=C(\C)CC/C=C(\C)CC/C=C(\C)CCC=C(C)C` [drawing 158], the “Mean of Hippocampus CA3 neurons damaged” value in assay [2] (Vehicle 12.71 in this table) came out at 2.22 Arbitrary units. Turning to `CCOC(=O)C(CC=C1CCCCC1)C(C)=O` (stereo not shown), the “Activity 1 μM” value in assay [3] is reported as 162* arbitrary units.

On to `CC(=O)CC/C=C(\C)CC/C=C(\C)CC/C=C(\C)CC/C=C(\C)CCC=C(C)C` [drawing 171], for which, in assay [1], the fold induction at 0.1 µM stood at 1.92, the fold induction at 1 µM was found to be 2.78 and the fold induction at 10 µM came out at 3.53. The corresponding values for `CC/C(=C\CCC(=O)C12CC3CC(CC(C3)C1)C2)CC/C=C(\C)CC/C=C(\C)CCC=C(C)C` [drawing 177] are 1.71, 2 and 1. Regarding `CCOC(=O)C(C/C=C(\C)CC/C=C(\C)CC/C=C(\C)CCC=C(C)C)C(C)=O` (stereo not shown) [drawing 168], in assay [2] (Vehicle 13.37 in this table), the “Mean of Seizure behaviors scores” value turned out to be 3.83 Arbitrary units.

For `CCO/N=C(\C)CC/C=C(\C)CC/C=C(\C)CC/C=C(\C)CCC=C(C)C`, in assay [2] (Vehicle 17.59 in this table), the “Mean of Hippocampus CA3 neurons damaged” value came out at 14.66 Arbitrary units.

`CC(C)=CCC/C(C)=C/CC/C(C)=C/CC/C(C)=C/CCC1(C)OCCO1` [drawing 152]: the “Mean of Hippocampus CA3 neurons damaged” value in assay [2] (Vehicle 15.31 in this table) was 12.11 Arbitrary units. For `CC(C)=CCC/C(C)=C/CC/C(C)=C/CC/C(C)=C/CC/C(C)=C/CCC(=O)C1CC1`, in assay [2] (Vehicle 6.59 in this table), the “Mean of Hippocampus CA3 neurons damaged” value amounted to 5.98 Arbitrary units. Regarding `CC(C)=CCC/C(C)=C/CC/C(C)=C/CC/C(C)=C/CC/C(C)=N/OCC(=O)O`, the “Mean of Seizure behaviors scores” value in assay [2] (Vehicle 26.68 in this table) came out at 13.37 Arbitrary units. For the compound `CC(C)=CCC/C(C)=C/CC/C(C)=C/CC/C(C)=C/COC(=O)C1CCCCC1` [drawing 169], in assay [1], the fold induction at 0.1 µM is 2.53, the fold induction at 1 µM stood at 2.34 and the fold induction at 10 µM was 2.53.

In the case of `COC(=O)C(NC(=O)OC(C)CC/C=C(\C)CC/C=C(\C)CCC=C(C)C)C(C)C` (stereo not shown) [drawing 156], the “Mean of Hippocampus CA3 neurons damaged” value in assay [2] (Vehicle 9.76 in this table) was found to be 6.61 Arbitrary units. With `CCOC(=O)C(C/C=C(\C)CC/C=C(\C)CCC=C(C)C)C(C)=O` (stereo not shown), in assay [3], the “Activity 1 μM” value is 259* arbitrary units. Turning to `CC(=O)CC/C=C(\C)CC/C=C(\C)CCC=C(C)C` [drawing 154], the “Mean of Hippocampus CA3 neurons damaged” value in assay [2] (Vehicle 19.95 in this table) is 10.61 Arbitrary units. In the case of `CCC(=O)CC/C=C(\CC)CC/C=C(\C)CC/C=C(\C)CCC=C(C)C`, in assay [1], the fold induction at 0.1 µM stood at 1.79, the fold induction at 1 µM was 6.08 and the fold induction at 10 µM amounted to 4.76. Turning to `CC(C)=CCC/C(C)=C/CC/C(C)=C/CC/C(C)=C/CC/C(C)=N/OCc1ccccc1`, the “Activity 1 μM” value in assay [3] is given as 287 arbitrary units. For the compound `CC(C)=CCC/C(C)=C/CC/C(C)=C/CC/C(C)=C/COC(=O)C1CCCCC1` [drawing 159], the “Mean of Hippocampus CA3 neurons damaged” value in assay [2] (Vehicle 6.59 in this table) stood at 1.55 Arbitrary units. For `CCCCCNC(=O)OC(C)CC/C=C(\C)CC/C=C(\C)CCC=C(C)C` (stereo not shown) [drawing 170], in assay [1], the fold induction at 0.1 µM came out at 1.16, the fold induction at 1 µM amounted to 1.26 and the fold induction at 10 µM was found to be 1.93. With `CC(C)=CCC/C(C)=C/CC/C(C)=C/CC/C(C)=C/CCC1(C)OCCO1` [drawing 165], the “Mean of Seizure behaviors scores” value in assay [2] (Vehicle 41.56 in this table) came to 16.35 Arbitrary units.

On to `C/C(=C\CO)CCC=C1CCCCC1`, for which the “Activity compared with control experiment with no addition of compound” value in assay [3] (in words, concentration not given) is “* Under the conditions tested, this compound was not found to have activity beyond that of the control for this assay”.

As for `CCOC(=O)C(C/C=C(\C)CC/C=C(\C)CC/C=C(\C)CCC=C(C)C)C(=O)C(C)C` (stereo not shown), the “Activity 1 nm” value in assay [3] is listed as 173 arbitrary units. As for `CC(C)=CCC/C(C)=C/CC/C(C)=C/CC/C(C)=C/CC1CCCCC1=O` (stereo not shown) [drawing 173], in assay [1], the fold induction at 0.1 µM stood at 3.85, the fold induction at 1 µM came to 3.78 and the fold induction at 10 µM was 2.25. As to `CC/C(=C\CCC(=O)C12CC3CC(CC(C3)C1)C2)CC/C=C(\C)CC/C=C(\C)CCC=C(C)C` [drawing 155], the “Mean of Hippocampus CA3 neurons damaged” value in assay [2] (Vehicle 19.95 in this table) was 12.54 Arbitrary units.
